Consider 8 molecules from PubChem BioAssay (NCI).

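Grown in 96-well plates, cells were treated for 48 hours with each compound at five concentrations. Insufficient inhibition: endpoint recorded as highest concentration tested. Abbreviation: GI50, concentration required for 50% inhibition of growth. At the TGI there is no net growth.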

Some test systems named below: SF-539 CNS; RPMI-8226 leukemia; OVCAR-3 ovarian; NCI-H23 lung; BT-549 breast; KM12 colon; SW-620 colon; EKVX NSCLC; 786-0 renal; ACHN renal.
What all share (experiment): growth of human tumour cells (NCI), 48 h

In the case of `COc1ccc(CCN2CC=Cn3c2nc2ccccc2c3=O)cc1`, the GI50 in the assay on SF-539 CNS is 0.0209 µM; with RPMI-8226 leukemia it was 0.0415 µM; in the assay on OVCAR-3 ovarian, 0.0214 µM; with NCI-H23 lung, 0.0416 µM; with BT-549 breast it was 0.0611 µM; in the assay with KM12 colon, 0.0167 µM. Moreover, the GI50 was 0.037 µM in the assay on SW-620 colon, 0.185 µM in the assay on EKVX NSCLC, 0.0445 µM in the assay with 786-0 renal and 0.0919 µM with ACHN renal. In addition, the TGI in the assay with SF-539 CNS was 0.0627 µM; with RPMI-8226 leukemia, 43 µM; in the assay with OVCAR-3 ovarian it was 0.0605 µM; in the assay on NCI-H23 lung, above 100 µM; in the assay on BT-549 breast, 15.5 µM; with KM12 colon, above 100 µM. The TGI was above 100 µM with SW-620 colon, above 100 µM in the assay with EKVX NSCLC, 31.6 µM in the assay with 786-0 renal and above 49.2 µM with ACHN renal.

On to `O=c1cnn(C2OC(CO)C(O)C2O)c(=S)[nH]1` (stereo not drawn), for which the TGI is above 100 µM in the assay with SF-539 CNS; above 29.8 µM in the assay with RPMI-8226 leukemia; above 100 µM in the assay on OVCAR-3 ovarian; above 100 µM in the assay on NCI-H23 lung; above 100 µM with BT-549 breast; above 100 µM in the assay on KM12 colon. Besides, the TGI is above 74.6 µM in the assay with SW-620 colon, above 100 µM in the assay on EKVX NSCLC, above 100 µM in the assay with 786-0 renal and above 100 µM with ACHN renal.

As to `CC1=C(c2cccc(O)c2)[C@H](c2ccc(OCCN3CC(CF)C3)cc2)Oc2ccc(O)cc21`, the GI50 in the assay on SF-539 CNS is 5.78 µM; in the assay with RPMI-8226 leukemia it was 8.11 µM; in the assay with OVCAR-3 ovarian, 10.8 µM; in the assay on NCI-H23 lung, 11.2 µM; in the assay on BT-549 breast, 10.5 µM; in the assay with KM12 colon, 6.44 µM. The GI50 with SW-620 colon is 7.28 µM; in the assay on EKVX NSCLC, 9.61 µM; with 786-0 renal it was 5.15 µM; in the assay with ACHN renal, 6.2 µM. Besides, the TGI in the assay on SF-539 CNS is 18.3 µM; in the assay on RPMI-8226 leukemia, 27.1 µM; in the assay with OVCAR-3 ovarian, 24.4 µM; in the assay on NCI-H23 lung it was 25.1 µM; in the assay with BT-549 breast it was 23.2 µM; in the assay on KM12 colon, 21.7 µM. Further, the TGI in the assay on SW-620 colon worked out at 20.9 µM; in the assay on EKVX NSCLC, 21.7 µM; with 786-0 renal, 18.9 µM; in the assay with ACHN renal it was 18.6 µM.

As to `COC1CC(O[C@H]2CC[C@@]3(C)[C@H](CC[C@@H]4[C@@H]3CC[C@]3(C)[C@@H](C5=CC(=O)OC5)[C@@H](OC(C)=O)C[C@]43O)C2)OC(C)C1O` (stereo partly drawn), the GI50 in the assay on SF-539 CNS, in the assay with RPMI-8226 leukemia, in the assay with OVCAR-3 ovarian, with NCI-H23 lung, in the assay with BT-549 breast and in the assay with KM12 colon was below 0.01 µM throughout. The GI50 in the assay on SW-620 colon, in the assay with EKVX NSCLC, with 786-0 renal and with ACHN renal was below 0.01 µM in each case. Besides, the TGI is below 0.01 µM in the assay on SF-539 CNS; below 0.01 µM in the assay with OVCAR-3 ovarian; below 0.01 µM in the assay on NCI-H23 lung; below 0.01 µM in the assay with BT-549 breast; below 0.0106 µM with KM12 colon; below 0.01 µM with SW-620 colon. Also, the TGI with EKVX NSCLC, with 786-0 renal and with ACHN renal was below 0.01 µM in each case.

For the molecule `N#C/C(=C\c1ccsc1)c1nc2ccccc2o1`, the GI50 was 38.7 µM in the assay with SF-539 CNS; 61.7 µM with RPMI-8226 leukemia; 85.1 µM in the assay with OVCAR-3 ovarian; above 100 µM with NCI-H23 lung; 48.4 µM in the assay with BT-549 breast; above 100 µM in the assay with KM12 colon. Moreover, the GI50 is above 100 µM in the assay on SW-620 colon, 67.5 µM with EKVX NSCLC, 8.4 µM in the assay with 786-0 renal and 45.2 µM in the assay with ACHN renal. Also, the TGI in the assay on SF-539 CNS, in the assay with RPMI-8226 leukemia, in the assay on OVCAR-3 ovarian, with NCI-H23 lung, in the assay with BT-549 breast and in the assay on KM12 colon was above 100 µM throughout. Besides, the TGI in the assay on SW-620 colon, in the assay with EKVX NSCLC, in the assay with 786-0 renal and in the assay with ACHN renal was above 100 µM each time.

On to `COc1ccc2c(CN3CCCC[C@H]3C(=O)O)cc3cc4c(cc3c2c1)OCO4`, for which the GI50 was 4.54 µM with SF-539 CNS; 2.57 µM in the assay with RPMI-8226 leukemia; 0.688 µM with OVCAR-3 ovarian; 3.25 µM in the assay with NCI-H23 lung; 2.6 µM with BT-549 breast; 3.69 µM in the assay on KM12 colon. In addition, the GI50 in the assay on SW-620 colon was 0.37 µM; in the assay with EKVX NSCLC it was 3 µM; with 786-0 renal it was 6.71 µM; with ACHN renal, 0.46 µM. Besides, the TGI with SF-539 CNS is 16.2 µM; in the assay with RPMI-8226 leukemia, 7.24 µM; in the assay with OVCAR-3 ovarian, 3.41 µM; in the assay on NCI-H23 lung it was above 100 µM; in the assay on BT-549 breast, 6.6 µM; in the assay on KM12 colon it was 52.5 µM. The TGI in the assay on SW-620 colon is 1.79 µM; in the assay with EKVX NSCLC, 6.77 µM; with 786-0 renal, above 100 µM; with ACHN renal, 2.43 µM.

As for `C#CC#CC#CC#CC#CC#CC#CC#CCC1OCC(COC(=O)O[C@@H](C(=O)O[C@H]2C[C@@]3(O)[C@@H](OC(=O)c4ccccc4)[C@@H]4[C@]5(OC(C)=O)CO[C@@H]5C[C@H](O)[C@@]4(C)C(=O)[C@H](OC(C)=O)C(=C2C)C3(C)C)[C@@H](NC(=O)c2ccccc2)c2ccccc2)O1` (stereo partly drawn), the GI50 with SF-539 CNS is 0.156 µM; with RPMI-8226 leukemia, 0.0472 µM; in the assay on OVCAR-3 ovarian, 0.0971 µM; in the assay with NCI-H23 lung, 0.465 µM; in the assay with BT-549 breast, 0.586 µM; in the assay with KM12 colon it was 0.0986 µM. Further, the GI50 was 0.104 µM in the assay on SW-620 colon, above 26.3 µM in the assay with EKVX NSCLC, 2.15 µM in the assay on 786-0 renal and above 24.7 µM with ACHN renal. Also, the TGI in the assay with SF-539 CNS is 1.97 µM; with RPMI-8226 leukemia, above 33.3 µM; in the assay with NCI-H23 lung, above 33.3 µM; in the assay on BT-549 breast it was above 33.3 µM; in the assay on KM12 colon it was above 33.3 µM; in the assay on SW-620 colon, above 33.3 µM. Also, the TGI in the assay on EKVX NSCLC, in the assay with 786-0 renal and with ACHN renal was above 33.3 µM in each case.

Regarding `COc1cc(OC)c(C/C=C/c2ccccc2)cc1O`, the TGI with SF-539 CNS came to 29.7 µM; with RPMI-8226 leukemia, 38 µM; in the assay on OVCAR-3 ovarian, 31.1 µM; in the assay with NCI-H23 lung, 35.2 µM; in the assay on BT-549 breast, 29.6 µM; in the assay with KM12 colon it was 31.5 µM. For the same molecule, the TGI was determined as 38 µM in the assay with SW-620 colon, 33.6 µM in the assay on EKVX NSCLC, 32.2 µM in the assay on 786-0 renal and 72.3 µM in the assay with ACHN renal.
